In assay [1] the test system is HL-60. As to the kind of experiment: Induction of apoptosis in human HL60 cells assessed as early apoptotic cells at 250 nM after 24 hrs by FITC-conjugated annexin V and propidium iodide staining-based flow cytometry. The format is functional.
A further assay deals with THP-1. As to the kind of experiment: Cytotoxicity against human THP1 cells after 22 hrs by MTS assay. The format is functional, cell-based. As to conditions: THP-1, 22 h. Background: Tetrazolium dyes change colour on reduction, which living cells bring about.
Assay [2] relates to HL-60. The assay is described as follows: Induction of apoptosis in human HL60 cells assessed as decrease in Bid protein level at 500 nM after 24 hrs by Western blot analysis. The format is functional, cell-based. Background: In western blotting, separated proteins are transferred to a membrane and probed.
Assay [3] concerns HL-60. The assay is described as follows: Cytotoxicity against human HL60 cells after 22 hrs by MTS assay. The class given is functional, cell-based. The conditions noted are these: HL-60, 22 h.
The nature of assay [4]: Inhibition of EGF-stimulated viability of mouse JB6 Cl41 cells after 22 hrs by MTS assay. The format is functional, cell-based. As to conditions: JB6 Cl41, 22 h.
Assay [5] deals with HL-60. As to the kind of experiment: Induction of apoptosis in human HL60 cells assessed as decrease in procaspase-3 level at 500 nM after 24 hrs by Western blot analysis. The format is functional, cell-based.
For assay [6], the system named is HL-60. As to the kind of experiment: Induction of apoptosis in human HL60 cells assessed as decrease in PARP level at 500 nM after 24 hrs by Western blot analysis. The format is functional, cell-based.
The next assay relates to SK-MEL-28. The assay is described as follows: Cytotoxicity against human SK-MEL-28 cells after 22 hrs by MTS assay. As to conditions: SK-MEL-28, 22 h. The format is functional, cell-based.
The subject of assay [7] is HL-60. The assay is described as follows: Induction of apoptosis in human HL60 cells assessed as change in mitochondrial permeability at 250 nM after 24 hrs by DiOC6 staining-based flow cytometry (RVB = 90.3%). The format is functional. (A flow cytometer gives signals particle by particle.)
For assay [8], the system named is HL-60. As to the kind of experiment: Induction of apoptosis in human HL60 cells assessed as early apoptotic cells at 50 nM after 24 hrs by FITC-conjugated annexin V and propidium iodide staining-based flow cytometry. The class given is functional.
Assay [9] relates to HL-60. The assay is described as follows: Induction of apoptosis in human HL60 cells assessed as early apoptotic cells at 500 to 1000 nM after 24 hrs by FITC-conjugated annexin V and propidium iodide staining-based flow cytometry. The class given is functional.
For another assay, the system named is DLD-1. As to the kind of experiment: Cytotoxicity against human DLD1 cells after 22 hrs by MTS assay. The conditions noted are these: DLD-1, 22 h. The format is functional, cell-based.
Assay [10] relates to HL-60. The assay is described as follows: Induction of apoptosis in human HL60 cells assessed as total apoptotic cells at 50 to 100 nM after 24 hrs by FITC-conjugated annexin V and propidium iodide staining-based flow cytometry. The class given is functional.
Assay [11] deals with HL-60. As to the kind of experiment: Induction of apoptosis in human HL60 cells assessed as decrease in procaspase-9 level at 500 nM after 24 hrs by Western blot analysis. The format is functional, cell-based.
Assay [12] has as its system HL-60. As to the kind of experiment: Induction of apoptosis in human HL60 cells assessed as total apoptotic cells at 1000 nM after 24 hrs by FITC-conjugated annexin V and propidium iodide staining-based flow cytometry. The format is functional.
For the next assay, the system named is MDA-MB-231. The assay is described as follows: Cytotoxicity against human MDA-MB-231 cells after 22 hrs by MTS assay. The format is functional, cell-based. As to conditions: MDA-MB-231, 22 h.
The nature of assay [13]: Cytotoxicity against human SNUC4 cells after 22 hrs by MTS assay. The class given is functional, cell-based. As to conditions: SNU-C4, 22 h.
Assay [14] deals with HL-60. The assay is described as follows: Induction of apoptosis in human HL60 cells assessed as decrease in PARP level at 250 nM after 24 hrs by Western blot analysis. The class given is functional, cell-based.
For a further assay, the system named is HeLa. As to the kind of experiment: Cytotoxicity against human HeLa cells after 22 hrs by MTS assay. The format is functional, cell-based.
For assay [15], the system named is HL-60. As to the kind of experiment: Induction of apoptosis in human HL60 cells assessed as decrease in procaspase-8 level at 500 nM after 24 hrs by Western blot analysis. The class given is functional, cell-based.

Active and inactive are the calls of the source. The rule behind the calls is not given here.

With `O=C1c2ccccc2-[n+]2ccc3c([nH]c4cc(Br)ccc43)c21.[Cl-]`, the Activity in the assay on HL-60 [1] is 40%; in the assay on HL-60 [7], 60.1%; in the assay with HL-60 [8], 5%; in the assay with HL-60 [9], 20%; with HL-60 [10], 20%; with HL-60 [12] it was 90%. For the same compound, the IC50 (usually the concentration at which inhibition is half-maximal) in the assay with THP-1 was 0.161 µM; in the assay on HL-60 [3], 0.142 µM; in [4] it was 0.144 µM; with SK-MEL-28, above 1 µM; with DLD-1, 0.118 µM; in the assay on MDA-MB-231, 0.173 µM. Also, the IC50 was determined as 0.125 µM in assay [13] and 0.086 µM in the assay with HeLa. For the same compound, the inhibition entry in the assay with HL-60 [2], in the assay with HL-60 [5], in the assay on HL-60 [6], with HL-60 [11], with HL-60 [14] and in the assay with HL-60 [15] was “Active” each time.

Values taken from ChEMBL document CHEMBL1165930, “The anticancer activity of 3- and 10-bromofascaplysins is mediated by caspase-8, -9, -3-dependent apoptosis” (Bioorg Med Chem, 2010).
